Drawing on patent publication US6444829B1, “Pyrrolidine compounds” (Hoffmann-La Roche Inc., priority 2000, dated 2002), this text covers melting point for one compound.

A word on the melting point: it is the temperature of the solid-liquid transition.

In turn, `CC(=O)N(Cc1ccccc1)NC(=O)[C@@H]1C[C@@H](S)CN1S(=O)(=O)c1ccc2ccccc2c1` gave a melting point of 64 °C.
